Laboratory results published in US20060063784A1, “Method of using substituted pyrazolo [1,5-a] pyrimidines” (priority 2004, published 2006).
pIC50: −log10 of the molar value. Like-named read-outs stand apart in the source and are kept apart here.

Tested on: 80S14 (p21-deficient) cells
Experiment: Cytotoxicity assay using isogenic cell lines: IC50 in 80S14 (p21-deficient) cells, SRB
Type: cell-based, human
Settings: for IC50: 80S14, 120 h; for pIC50: SRB
Procedure: Cytotoxicity Assay Using Isogenic Cell Lines: • 1. 80S14 (p21-deficient) cells were cultured in RPMI 1640 medium (Gibco/Invitrogen Life technologies) supplemented with 10% fetal bovine serum (FBS, Gibco) and 10 μg/ml gentamycin (Gibco). Cells were maintained at 37° C. under 7% CO2 • 2. Cells were plated at 6×10^4/ml (0.2 ml/well; 12,000 cells/well) in 96-well microtiter plates (Falcon or Corning/Costar) and incubated at 37° C. overnight (18-24 hours). • 3. 2-5 μl of the test agent [200 μg/ml stock in 20% DMSO/20 mM HEPES, pH 7.5 (Gibco)] was added to each well to achieve a final concentration of 2-5 μg/ml. Cells were incubated with the test compounds for 5 days at 37° C. • 4. Surviving cells were fixed with 50 μl 50% trichloroacetic acid (Sigma; 10% final concentration) for 1 hour at 4° C. • 5. Plates were rinsed twice with water (0.3 ml per wash using MRD8 robot), and allowed to dry. • 6. Sulforhodamine B (SRB) (Sigma; 0.4% in 1% acetic acid, 50 μl per well; MRD8 robot) was added and plates kept at room temperature for 10 minutes. • 7. Excess dye was removed by washing with 1% acetic acid (3 times, 0.3 ml per wash; MRD8 robot) and allowed to dry. • 8. The dye was solubilized in Tris base (Sigma; 10 mM, 150 μl per well). Plates were kept at room temperature for 30 minutes to allow the dye to diffuse. • 9. Absorbance was measured at 540 nm. • 10. The percentage of cells surviving drug treatment relative to control wells (no drug) was determined. • 11. The difference in % cell survival between the two cell lines was calculated. • 12. Compounds producing a difference score of >50 were considered to be selective for the p21-deficient cells and were evaluated further: Determination of selectivity of compounds for p21−/− cells: • 1. 80S14 cells were cultured as described above. • 2. Cells were seeded in 96-well microtiter plates at 12,000 cells/well (either 0.15 ml/well of 8×10^4 cells/ml suspension, or 0.2 ml/well of 6×10^4 cells/ml suspension). Plates were incubated at 37° C. overnight (18-24 hours). • 3. Serial dilutions of the test agent were added to each well. Dilutions were prepared either in 40% DMSO/20% methanol/20 mM HEPES, pH 7.5 (Gibco) or directly in growth medium. One of two dose ranges were used: 5 pM to 50 μM or 170 pg/ml to 10 μg/ml. Cells were incubated with the test compounds for 5 days at 37° C. • 4. Surviving cells were fixed with 50 μl 50% trichloroacetic acid (Sigma; 10% final concentration) for 1 hour at 4° C. • 5. Plates were rinsed extensively in water, and allowed to dry. • 6. Sulforhodamine B (Sigma; 0.4% in 1% acetic acid, 70 μl per well) was added and plates kept at room temperature for 10 minutes. • 7. Excess dye was removed by washing 5 times with 1% acetic acid and plates were allowed to dry. • 8. The dye was solubilized in Tris base (Sigma; 10 mM, 150 μl per well). Plates were placed on a titer plate shaker (Lab Line Instruments) for 5 minutes to allow the dye to diffuse. • 9. Absorbance was measured at 560 nm.
10. The drug concentration that inhibits cell proliferation by 50% relative to untreated controls (IC50) was determined from cytotoxicity curves.

[1] = Homo sapiens, read-out: IC50 for 80S14 (uM)
[2] = Homo sapiens, 120 h, 80S14 p21-deficient cells, 5 days incubation, read-out: IC50 for 80SI4
[3] = Homo sapiens, read-out: IC50 for 80SI4 (uM)
[4] = Homo sapiens, 120 h, 80S14 (p21-deficient) cells, 5 days, class symbols, read-out: IC50 for 80S14
[5] = 80S14 p21-deficient cells, 5 days incubation, read-out: IC50 for 80SI4

For `CC(C)OC(=O)Nc1cccc(-c2ccnc3c(C(=O)c4ccco4)cnn23)c1` [Example 299, Isopropyl 3-[3-(2-furoyl)pyrazolo[1,5-a]pyrimidin-7-yl]phenylcarbamate], the IC50 [1] was under 1 µM.

`CC1(C(=O)Nc2cccc(-c3ccnc4c(C(=O)c5cccs5)cnn34)c2)CCCCC1` [Example 143, 1-methyl-N-{3-[3-(thien-2-ylcarbonyl)pyrazolo[1,5-a]pyrimidin-7-yl]phenyl}cyclohexanecarboxamide] was tested, and the pIC50 [2] was over 6.00.

`CC(C)OC(=O)Nc1cccc(-c2ccnc3c(C(=O)C4CCCC4)cnn23)c1` [Example 295, Isopropyl 3-[3-(cyclopentylcarbonyl)pyrazolo[1,5-a]pyrimidin-7-yl]phenylcarbamate] was tested, and the IC50 [1] was 1 to 10 µM.

Compound `C#CCC(C)OC(=O)Nc1cccc(-c2ccnc3c(C(=O)c4cccs4)cnn23)c1` (centres unmarked) [Example 183, 1-methylbut-3-ynyl 3-[3-(thien-2-ylcarbonyl)pyrazolo[1,5-a]pyrimidin-7-yl]phenylcarbamate] has a pIC50 [2] of over 6.00.

With `C#CCCOC(=O)Nc1cccc(-c2ccnc3c(C(=O)c4cccs4)cnn23)c1` [Example 193, but-3-ynyl 3-[3-(thien-2-ylcarbonyl)pyrazolo[1,5-a]pyrimidin-7-yl]phenylcarbamate] the IC50 [3] was under 1 µM.

For `CC(C)NC(=O)Nc1cccc(-c2ccnc3c(C(=O)c4ccco4)cnn23)c1` [Example 298, N-{3-[3-(2-Furoyl)pyrazolo[1,5-a]pyrimidin-7-yl]phenyl}-N′-isopropylurea], the pIC50 [4] was over 6.00.

Compound `CCN(CC)CCC(=O)Nc1cccc(-c2ccnc3c(C(=O)c4cccs4)cnn23)c1` [Example 65, N-3,N-3-diethyl-N-1-{3-[3-(thien-2-ylcarbonyl)pyrazolo[1,5-a]pyrimidin-7-yl]phenyl}-beta-alaninamide] has a pIC50 [5] of 4.30 to 5.00.

With `O=C(CNC(=O)C1CCCC1)Nc1cccc(-c2ccnc3c(C(=O)c4cccs4)cnn23)c1` [Example 128, N-[2-oxo-2-({3-[3-(thien-2-ylcarbonyl)pyrazolo[1,5-a]pyrimidin-7-yl]phenyl}amino)ethyl]cyclopentanecarboxamide] the pIC50 [2] was 5.00 to 6.00.

With `O=C(c1cccs1)c1cnn2c(-c3cccc(NC/C=C/c4ccccc4)c3)ccnc12` [Example 412, [7-(3-{[(2E)-3-Phenylprop-2-enyl]amino}phenyl)pyrazolo[1,5-a]pyrimidin-3-yl] (thien-2-yl)methanone] the pIC50 [4] was 4.30 to 5.00.

`CCOC(=O)NCC(=O)Nc1cccc(-c2ccnc3c(C(=O)c4cccs4)cnn23)c1` [Example 113, ethyl 2-oxo-2-({3-[3-(thien-2-ylcarbonyl)pyrazolo[1,5-a]pyrimidin-7-yl]phenyl}amino)ethylcarbamate] was tested, and the pIC50 [2] was 5.00 to 6.00.

`CC(C)C(=O)Nc1cccc(-c2ccnc3c(C(=O)c4ccco4)cnn23)c1` [Example 241, N-[3-[3-(2-Furanylcarbonyl)pyrazolo-[1,5-a]pyrimidin-7-yl]phenyl}-2-methyl-propanamide] gave an IC50 [1] of 1 to 10 µM.

`O=C(c1cccs1)c1cnn2c(-c3cccc(NC(=O)C(Cl)(Cl)Cl)c3)ccnc12` [Example 49, 2,2,2-trichloro-N-{3-[3-(thien-2-ylcarbonyl)pyrazolo[1,5-a]pyrimidin-7-yl]phenyl}acetamide] showed a pIC50 [2] of 5.00 to 6.00.

`O=C(c1cccs1)c1cnn2c(-c3cccc(NS(=O)(=O)c4cccs4)c3)ccnc12` [Example 38, N-{3-[3-(thien-2-ylcarbonyl)pyrazolo[1,5-a]pyrimidin-7-yl]phenyl}thiophene-2-sulfonamide] showed a pIC50 [2] of 5.00 to 6.00.

`O=C(Nc1cccc(-c2ccnc3c(C(=O)c4cccs4)cnn23)c1)c1ccc(Br)cc1` [Example 90, 4-bromo-N-{3-[3-(thien-2-ylcarbonyl)pyrazolo[1,5-a]pyrimidin-7-yl]phenyl}benzamide] showed a pIC50 [2] of 5.00 to 6.00.

Work on `CS(=O)(=O)Nc1cccc(-c2ccnc3c(C(=O)c4cccs4)cnn23)c1` [Example 27, N-{3-[3-(thien-2-ylcarbonyl)pyrazolo[1,5-a]pyrimidin-7-yl]phenyl} methanesulfonamide] yielded a pIC50 [2] of 5.00 to 6.00.

Work on `COc1ccc(-c2ccnc3c(C(=O)c4cccs4)cnn23)c(OC)c1` [Example 246, [7-(2,4-dimethoxyphenyl)pyrazolo[1,5-a]-pyrimidin-3-yl}-2-thienyl-methanone] yielded a pIC50 [4] of 4.30 to 5.00.

With `CCCCCc1ccc(C(=O)Nc2cccc(-c3ccnc4c(C(=O)c5cccs5)cnn34)c2)cc1` [Example 92, 4-pentyl-N-{3-[3-(thien-2-ylcarbonyl)pyrazolo[1,5-a]pyrimidin-7-yl]phenyl}benzamide] the pIC50 [2] was 4.30 to 5.00.

In the case of `Cc1ccccc1S(=O)(=O)Nc1cccc(-c2ccnc3c(C(=O)c4cccs4)cnn23)c1` [Example 33, 2-methyl-N-{3-[3-(thien-2-ylcarbonyl)pyrazolo[1,5-a]pyrimidin-7-yl]phenyl}benzenesulfonamide], the pIC50 [2] was over 6.00.

`C=CCCOC(=O)Nc1cccc(-c2c(C)cnc3c(C(=O)c4cccs4)cnn23)c1` [Example 213, but-3-enyl 3-[6-methyl-3-(thien-2-ylcarbonyl)pyrazolo[1,5-a]pyrimidin-7-yl]phenylcarbamate] was tested, and the pIC50 [2] was 4.30 to 5.00.

`CC(C)CC(=O)Nc1cccc(-c2ccnc3c(C(=O)c4cccs4)cnn23)c1` [Example 47, 3-methyl-N-{3-[3-(thien-2-ylcarbonyl)pyrazolo[1,5-a]pyrimidin-7-yl]phenyl}butanamide] was tested, and the IC50 [3] was under 1 µM.

For `CN(C(=O)C1CCC1)c1cccc(-c2ccnc3c(C(=O)c4ccco4)cnn23)c1` [Example 233, N-[3-[3-(2-Furanylcarbonyl)-pyrazolo[1,5-a]pyrimidin-7-yl]phenyl}-N-methyl-cyclobutanecarboxamide], the pIC50 [4] was 4.30 to 5.00.

With `O=C(Nc1cccc(-c2ccnc3c(C(=O)c4cccs4)cnn23)c1)c1cnc[nH]1` [Example 415, N-{3-[3-(Thien-2-ylcarbonyl)pyrazolo[1,5-a]pyrimidin-7-yl]phenyl}-1H-imidazole-5-carboxamide] the pIC50 [4] was over 6.00.

With `CC(C)CC(=O)Nc1cccc(-c2ccnc3c(-c4cccc(CN(C)C)c4)cnn23)c1` [Example 497, N-[3-(3-{3-[(Dimethylamino)methyl]phenyl}pyrazolo[1,5-a]pyrimidin-7-yl)phenyl]-3-methylbutanamide] the pIC50 [4] was 4.30 to 5.00.

With `CCCCC/C(=C\c1ccccc1)CNc1cccc(-c2ccnc3c(C(=O)c4cccs4)cnn23)c1` [Example 410, [7-(3-{[(2E)-2-Pentyl-3-phenylprop-2-enyl]amino}phenyl)pyrazolo[1,5-a]pyrimidin-3-yl](thien-2-yl)methanone] the pIC50 [4] was 4.30 to 5.00.

`CCCCCC(=O)Nc1cccc(-c2ccnc3c(C(=O)c4cccs4)cnn23)c1` [Example 153] was tested, and the pIC50 [5] was over 6.00.

`CC(C)=CC(=O)Nc1cccc(-c2ccnc3c(C(=O)c4cccs4)cnn23)c1` [Example 45, 3-methyl-N-{3-[3-(thien-2-ylcarbonyl)pyrazolo[1,5-a]pyrimidin-7-yl]phenyl}but-2-enamide] was tested, and the pIC50 [2] was over 6.00.

Work on `Cc1cc(-c2cccc(NC(=O)C3CO3)c2)n2ncc(C(=O)c3cccs3)c2n1` (centres unmarked) [Example 278, {3-[5-Methyl-3-(2-thienylcarbonyl)pyrazolo[1,5-a]pyrimidin-7-yl]phenyl}-2-oxiranecarboxamide] yielded a pIC50 (80S14 (p21-deficient) cells, 5 days, class symbols, read-out: IC50 for 80S14) of over 6.00.

Compound `O=C(CNC(=O)C12CC3CC(CC(C3)C1)C2)Nc1cccc(-c2ccnc3c(C(=O)c4cccs4)cnn23)c1` [Example 134, N-[2-oxo-2-({3-[3-(thien-2-ylcarbonyl)pyrazolo[1,5-a]pyrimidin-7-yl]phenyl}amino)ethyl]adamantine-1-carboxamide] has a pIC50 [5] of 5.00 to 6.00.

`O=C(NC(=O)C(Cl)(Cl)Cl)Nc1cccc(-c2ccnc3c(C(=O)c4cccs4)cnn23)c1` [Example 9, N-{3-[3-(thien-2-ylcarbonyl)pyrazolo[1,5-a]pyrimidin-7-yl]phenyl}-N′-(trichloroacetyl)urea] showed a pIC50 [2] of 5.00 to 6.00.
